Data reported in publication PMC9571594, “Development of Semisynthetic Apoptosis-Inducing Agents Based on Natural Phenolic Acids Scaffold: Design, Synthesis and In-Vitro Biological Evaluation” (Molecules, 2022).
Where “and” joins values, the source holds several entries; their conditions need not be identical. Identical values can stand only once. Like-named read-outs stand apart in the source and are kept apart here.

How the values were obtained:
Format in all cases: cell-based
MMP-9 = assay: RT-qPCR gene expression of MMP-9; details: for MMP9 Fold Change: Caco2, relative to cont.Caco2 = 1
Protocol: (§1) The treated cells were harvested and the total RNA was extracted using RNeasy Mini Kit (Qiagen) according to the manufacturer’s instruction. The primers of the required genes (Table 6) were used for SYBR Green qRT-PCR using a one-step RT-PCR kit with SYBR Green (Bio-Rad). qRT-PCR was performed on Rotor Gene Q (Qiagen). […] Rotor-Gene 6000 Series Software was used for data analysis. and their HGNC ID was added (Table 6)
(§2) Researcher : Dr/Noura email: mob.
(§3) Reader : Rotorgene RT- PCR system
(§4) Kit used : Qiagen RNA extraction/BioRad syber green PCR MMX
(§5) Assay samples :Cell culture Lysate
(§6) Cpd. No. Cpd. No. Cpd. No. Cpd. No.

MMP-2 = assay: RT-qPCR gene expression of MMP-2; details: for MMP2 Fold Change: Caco2, relative to cont.Caco2 = 1
Protocol: as §1, §2, §3, §4, §5, §6

Caco-2 cells [1] = assay: Cell-cycle analysis by flow cytometry; details: for %G0–G1 / %G2/M / %S / %Pre-G1: Caco-2 cells; for %G0–G1 / %G2/M / %S: cell-cycle distribution after treatment; for %Pre-G1: Pre-G1 = apoptotic population; for apoptotic population compared to the parent compound: Caco-2, in words, versus parent 1 or 2
Protocol: The potential candidates with anti-tumor effect on the Caco-2 cell line along with a high SI were chosen for cell-cycle analysis. The cell-cycle distribution and cell death were analyzed using Annexin V-FITC/PI staining and flow cytometry (Table 4, Figure 4).
In order to determine the percentage of viable, apoptotic and necrotic cells after treatment with our compounds, double-staining with fluorescein isothiocyanate (FITC) and PI was performed. Annexin V-FITC Apoptosis Detection Kit (BioVision, CA, USA) was used. Briefly, cultured Caco-2 were treated with the tested compounds or DMSO for 24h. Cells were then collected by centrifugation at 2000 rpm for 5 min, and the pellet was washed with PBS then centrifuged again at 2000 rpm for 5 min then resuspended in 500μL of the kit’s binding buffer before adding the Annexin V-FITC and PI. The cells were then incubated at room temperature in the dark for 5 min. […]
Assay : Cell Cycle Analysis
Kit used : ab139418_Propidium Iodide Flow Cytometry Kit/BD
Assay samples :Cell culture
as §6

Caco-2 cells [2] = assay: Annexin V-FITC/PI apoptosis assay by flow cytometry; design: key: % of cells; details: annexin-V FITC/PI staining, 24h
Protocol: In order to determine the percentage of viable, apoptotic and necrotic cells after treatment with our compounds, double-staining with fluorescein isothiocyanate (FITC) and PI was performed. Annexin V-FITC Apoptosis Detection Kit (BioVision, CA, USA) was used. Briefly, cultured Caco-2 were treated with the tested compounds or DMSO for 24h. Cells were then collected by centrifugation at 2000 rpm for 5 min, and the pellet was washed with PBS then centrifuged again at 2000 rpm for 5 min then resuspended in 500μL of the kit’s binding buffer before adding the Annexin V-FITC and PI. The cells were then incubated at room temperature in the dark for 5 min. Annexin V-FITC binding was measured using FACS Calibur flow cytometer (BD biosciences, USA) (Ex = 488 nm, Em = 533 nm, FL1 filter for annexin and FL2 filter for PI).

Caco-2 cancer cell line = assay: MTT cell viability assay, Caco-2; details: MTT, 48 h, average of triplicates, semi-synthesized compounds (Table 3), read-out: IC50 (μM) on Caco-2 cancer cell line
Protocol: MCF-7 cells (Human breast adenocarcinoma), HepG2 (human hepatocellular carcinoma), A549 (human lung adenocarcinoma), Caco-2 (colon carcinoma), PANC-1 (human pancreatic cancer), and Vero cells (derived from normal kidney cells) were supplied by (Holding Company for Biological Products and Vaccines VACSERA; Giza, Egypt). The cells were cultured in PRMI 1640 medium (Lonza, Switzerland) supplemented with 10% fetal bovine serum (Gibco), 1% penicillin and 1% streptomycin (Sigma Aldrich, Saint Louis, MO, USA) at 37 °C under an atmosphere of 5% CO2 and 95% air.
The effect of parent compounds and their derivatives were assessed by (3-(4,5-dimethylthiazol-2-yl)-2,5diphenyl-tetrazolium bromide) MTT assay. […] After a merged sheet of cells developed, the growth media was decanted from the 96-well microtiter and refilled with different concentrations of compounds (µg/mL), and the plate was incubated at 37 °C for 48 h to minimize exposure to the dissolving agent (Supporting Information).
MTT solution (BIO BASIC CANADA INC) was prepared [5 mg/mL in phosphate buffered saline (PBS)], added to each well and incubated for 4 h, then after removing the media, 200 μL of DMSO was added to each well to solubilize the formazan crystals and the optical density of the formazan product was measured at 560 nm using microplate reader (mindray, MR-96A). The results were calculated as the mean of the three independent experiments. […]
Determination of sample cytotoxicity on cells (MTT protocol) […]
well) and incubated at 37°C for 24 hours to develop a complete monolayer sheet.
2- Growth medium was decanted from 96 well micro titer plates after confluent sheet of cells were formed, cell monolayer was washed twice with wash media.
3- two-fold dilutions of tested sample was made in RPMI medium with 2% serum […]
4- 0.1 ml of each dilution was tested in different wells leaving 3 wells as control, receiving only maintenance medium.
5- Plate was incubated at 37°C and examined. Cells were checked for any physical signs of toxicity, e.g. partial or complete loss of the monolayer, rounding, shrinkage, […]
6- MTT solution was prepared (5mg/ml in PBS) (BIO BASIC CANADA INC).
8- 20ul MTT solution were added to each well. Place on a shaking table, 150rpm for 5 minutes, to thoroughly mix the MTT into the media.
10) Dump off the media. (dry plate on paper towels to remove residue if necessary. […] 9 ش - ايلعلا هبضهلا - مطقملا / ىسيئرلا لمعملا […]

Caspase 3 = assay: RT-qPCR gene expression of caspase 3
Protocol: (§7) Gene expression was chosen over Western blotting for more accurate quantification and thus comparison. The gene expression of the p53, caspase 3 and Bax genes was measured.
(§8) The treated cells were harvested and the total RNA was extracted using RNeasy Mini Kit (Qiagen) according to the manufacturer’s instruction. The primers of the required genes (Table 6) were used for SYBR Green qRT-PCR using a one-step RT-PCR kit with SYBR Green (Bio-Rad). qRT-PCR was performed on Rotor Gene Q (Qiagen). […] Rotor-Gene 6000 Series Software was used for data analysis. and their HGNC ID was added (Table 6) […]
(§9) Researcher : DR Moh.Abdelbasir email: m_a_baser@yahoo.com mob.01 […]
as §3, §4, §5, §6
(§10) Run On Software Version Rotor-Gene 1.7.87
(§11) This report generated by Rotor-Gene 6000 Series Software 1.7 (Build 87) Copyright 2000-2006 Corbett Research, a Division of Corbett Life Science. All rights reserved. […]

Bax = assay: RT-qPCR gene expression of Bax
Protocol: as §7, §8, §9, §3, §4, §5, §6, §10, §11

p53 = assay: RT-qPCR gene expression of p53
Protocol: as §7, §8, §9, §3, §4, §5, §6, §10, §11

Bcl-2 = assay: RT-qPCR gene expression of Bcl-2; details: Caco2, β-actin as control gene, relative to cont.Caco2 = 1; listed as FA9
Protocol: as §8, §9, §3, §4, §5, §6, §10, §11

[3] = Caco2, β-actin as control gene, relative to cont.Caco2 = 1, listed as FA9

Molecule	MMP9 Fold Change (MMP-9) [Fold Change]	MMP2 Fold Change (MMP-2) [Fold Change]	%G0–G1 (Caco-2 cells [1]) [%]	%G2/M (Caco-2 cells [1]) [%]	%S (Caco-2 cells [1]) [%]	%Pre-G1 (Caco-2 cells [1])	Apoptosis Total (Caco-2 cells [2])	Early Apoptosis (Caco-2 cells [2])	Necrosis (Caco-2 cells [2])	IC50 (Caco-2 cancer cell line; Homo sapiens, Caco-2) [µM]	apoptotic population compared to the parent compound (Caco-2 cells [1])	Late Apoptosis (Caco-2 cells [2])	IC50 (Caco-2 cancer cell line) [µM]	further results
Nc1ccccc1NC(=O)/C=C/c1ccc(O)c(O)c1 [Compound 11, (E)-N-(2-Aminophenyl)-3-(3,4-dihydroxyphenyl)acrylamide]	0.30±0.006	0.54±0.014	41.09 ± 2.76	25.55 ± 2.47	33.36 ± 2.73	14.04% and 14.04 ± 0.95%	14.04	2.47	2.07	10				%G0–G1 (Caco-2 cells [1]; listed as CA12): 41.09%; %G2/M (Caco-2 cells [1]; listed as CA12): 25.55%; %S (Caco-2 cells [1]; listed as CA12): 33.36%; Late Apoptosis (Caco-2 cells [2]; listed as CA12): 9.5
COc1cc(/C=C/C(=O)NC2CCCCC2)ccc1O [Compound 15, (E)-N-Cyclohexyl-3-(4-hydroxy-3-methoxyphenyl)acrylamide]	0.37±0.007	0.59±0.016	26.59 ± 2.67	50.83 ± 3.49	22.58 ± 2.91	25.17% and 25.17 ± 3.29%	25.17	5.79	2.81	20				overexpression of caspase 3 gene (Caspase 3; Figures 6 and 7): 15 fold; overexpression of Bax gene (Bax; Figures 6 and 7): 15 fold; overexpression of p53 gene (p53; Figures 6 and 7): 10 fold; %G0–G1 (Caco-2 cells [1]; listed as FA5): 26.59%; %G2/M (Caco-2 cells [1]; listed as FA5): 50.83%; %S (Caco-2 cells [1]; listed as FA5): 22.58%
COc1ccc(/C=C/C(=O)NCc2ccccc2)cc1O [Compound 18, (E)-N-Benzyl-3-(3-hydroxy-4-methoxyphenyl) acrylamide]	0.52±0.010	0.42±0.011	33.26 ± 4.29	37.62 ± 2.47	29.12 ± 4.05	12.92 ± 2.16%	12.92	3.88	1.73		non-significant decrease	7.31	50	Casp3 gene expression Fold Change (Caspase 3; [3]): 6.02±0.33 Fold Change and 6.029 Fold Change; Bax gene expression Fold Change (Bax; [3]): 6.06±0.41 Fold Change and 6.068 Fold Change; Bcl2 gene expression Fold Change (Bcl-2): 0.58±0.03 Fold Change and 0.5856 Fold Change; P53 gene expression Fold Change (p53; [3]): 5.87±0.27 Fold Change and 5.878 Fold Change; %G0–G1 (Caco-2 cells [1]; listed as FA9): 33.26%; %G2/M (Caco-2 cells [1]; listed as FA9): 37.62%; %S (Caco-2 cells [1]; listed as FA9): 29.12%; %Pre-G1 (Caco-2 cells [1]; listed as FA9): 12.92%
(E)-3-(3-Hydroxy-4-methoxyphenyl)-N-(m-tolyl)acrylamide [Compound 17]						12.11 ± 0.97%	12.11	4.25	1.61		non-significant decrease	6.25	20	expression of MMP9 (in words) (MMP-9; Figures 8 and 9): greatest inhibition; expression of MMP2 (in words) (MMP-2; Figures 8 and 9): greatest inhibition; %Pre-G1 (Caco-2 cells [1]; listed as FA8): 12.11%
